Results: ChEMBL document CHEMBL1201862, “PubChem BioAssay data set” (2004)
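Exposure lasted 48 hours, with cells grown in 96-well plates and compounds tested at five concentrations. Here, GI50 denotes the concentration required for 50% inhibition of growth.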 Activity calls are given as the source filed them. Cut-off read from the data, not from the text of the source: active = GI50 up to about 1.1 µM and inactive = higher.

Key:
Test in all cases: NCI tumour cell line growth inhibition, 48 h
[1] = test system: U-251
[2] = test system: HOP-62
[3] = test system: SF-268
[4] = test system: TK-10
[5] = test system: ACHN
[6] = test system: HT-29
[7] = test system: SK-MEL-5
[8] = test system: MDA-MB-435
[9] = test system: SF-295
[10] = test system: LOX IMVI
[11] = test system: MOLT-4
[12] = test system: SK-MEL-2
[13] = test system: OVCAR-5
[14] = test system: MCF7
[15] = test system: NCI-H226
[16] = test system: BT-549
[17] = test system: HCC 2998
[18] = test system: RXF 393
[19] = test system: NCI-H23
[20] = test system: MDA-MB-231

Row | Structure (SMILES) | GI50 [1] | GI50 [2] | GI50 [3] | GI50 [4] | GI50 [5] | GI50 [6] | GI50 [7] | GI50 [8] | GI50 [9] | GI50 [10] | GI50 [11] | GI50 [12] | GI50 [13] | GI50 [14] | GI50 [15] | GI50 [16] | GI50 [17] | GI50 [18] | GI50 [19] | GI50 [20]
1 | CC[C@H]1C=CCC[C@@]2(C[C@@H]3CC[C@H]4[C@@H](C(=O)OCCCCCCCCCCCCCCCC(=O)N(CCCNC(C)=O)C[C@H](CCNC(C)=O)OC(C)=O)[C@@]5(CCC[C@@H](C)O5)NC(=[N+]34)N2)O1 | 0.914 µM (active) | 2 µM (inactive) | 1.66 µM (inactive) | 1.56 µM (inactive) | 1.89 µM (inactive) | 1.4 µM (inactive) | 1.3 µM (inactive) | 1.64 µM (inactive) | 1.86 µM (inactive) | 1.64 µM (inactive) | 1.23 µM (inactive) | 1.72 µM (inactive) | 1.51 µM (inactive) | 1.46 µM (inactive) | 1.41 µM (inactive) | 1.82 µM (inactive) | 1.26 µM (inactive) | 1.79 µM (inactive) | 1.58 µM (inactive) | –
2 | CN(C)c1ccc(/C=N/Nc2nc3ccccc3c(=O)n2-c2ccccc2)cc1 | 34 µM (inactive) | 33.3 µM (inactive) | 43.5 µM (inactive) | > 100 µM (inactive) | 67.3 µM (inactive) | > 100 µM (inactive) | 56.9 µM (inactive) | > 100 µM (inactive) | 93.1 µM (inactive) | > 100 µM (inactive) | > 100 µM (inactive) | – | > 100 µM (inactive) | > 100 µM (inactive) | > 100 µM (inactive) | – | > 100 µM (inactive) | 50.8 µM (inactive) | > 100 µM (inactive) | 63 µM (inactive)
3 | O=C1/C(=C\c2c(-c3ccccc3)[nH]n(-c3ccccc3)c2=O)C(c2ccccc2)=NN1c1ccccc1 | > 100 µM (inactive) | > 100 µM (inactive) | > 100 µM (inactive) | > 100 µM (inactive) | > 100 µM (inactive) | > 100 µM (inactive) | – | > 100 µM (inactive) | > 100 µM (inactive) | > 100 µM (inactive) | > 100 µM (inactive) | > 100 µM (inactive) | > 100 µM (inactive) | > 100 µM (inactive) | > 100 µM (inactive) | – | > 100 µM (inactive) | > 100 µM (inactive) | > 100 µM (inactive) | > 100 µM (inactive)
4 | C=C1C(=O)[C@@]23CC[C@@H]4[C@@]5(C)CCC[C@@]4(OC5=O)C2(C)CC[C@]1(OC)C3 (stereo partly drawn) | – | 1.17 µM (inactive) | 2.14 µM (inactive) | 1.38 µM (inactive) | 1.77 µM (inactive) | 0.36 µM (active) | 1.59 µM (inactive) | 1.32 µM (inactive) | 3.4 µM (inactive) | 0.232 µM (active) | 0.238 µM (active) | 1.06 µM (active) | 2.06 µM (inactive) | 0.255 µM (active) | – | – | 0.351 µM (active) | – | 1.45 µM (inactive) | –
5 | CC1=C(C#N)C(C#N)(C#N)C(NN(C)C)C1 (stereo not drawn) | 33.9 µM (inactive) | 16.7 µM (inactive) | 21.7 µM (inactive) | 17 µM (inactive) | 13.3 µM (inactive) | 15.4 µM (inactive) | 4.49 µM (inactive) | 23.7 µM (inactive) | 24.5 µM (inactive) | 12.6 µM (inactive) | 18.5 µM (inactive) | 20.2 µM (inactive) | 23.3 µM (inactive) | 10.6 µM (inactive) | – | – | 17.2 µM (inactive) | 13 µM (inactive) | 17.1 µM (inactive) | 14.2 µM (inactive)
6 | CCOC(=O)CSc1nnc(CSc2nc(-c3ccccc3)c(-c3ccccc3)[nH]2)n1-c1ccccc1 | > 100 µM (inactive) | > 100 µM (inactive) | 26.1 µM (inactive) | 17 µM (inactive) | 18.3 µM (inactive) | 48.8 µM (inactive) | > 100 µM (inactive) | – | > 100 µM (inactive) | > 61.5 µM (inactive) | > 49.8 µM (inactive) | > 31.6 µM (inactive) | > 59.2 µM (inactive) | 66.4 µM (inactive) | 42.3 µM (inactive) | > 100 µM (inactive) | 19.5 µM (inactive) | 22.5 µM (inactive) | > 100 µM (inactive) | 34.5 µM (inactive)
7 | O=C(c1ccccc1)c1ccc(N2C(=O)/C(=C/c3cccc([N+](=O)[O-])c3)N=C2c2ccccc2)c(N2C(=O)/C(=C/c3cccc([N+](=O)[O-])c3)N=C2c2ccccc2)c1 | 78.7 µM (inactive) | 75.3 µM (inactive) | 62.5 µM (inactive) | 42.5 µM (inactive) | 53.2 µM (inactive) | 41.9 µM (inactive) | 2.34 µM (inactive) | 4.88 µM (inactive) | 16.2 µM (inactive) | 42 µM (inactive) | 20.5 µM (inactive) | 26.4 µM (inactive) | > 100 µM (inactive) | 26.7 µM (inactive) | – | 35.5 µM (inactive) | 15 µM (inactive) | – | – | > 100 µM (inactive)
8 | COc1ccccc1/C=C/C(=O)c1sc(-c2cccnc2)nc1C | > 100 µM (inactive) | > 100 µM (inactive) | > 100 µM (inactive) | > 100 µM (inactive) | > 100 µM (inactive) | > 100 µM (inactive) | 47.3 µM (inactive) | – | 46.5 µM (inactive) | > 100 µM (inactive) | 61.7 µM (inactive) | > 100 µM (inactive) | > 100 µM (inactive) | – | > 100 µM (inactive) | – | > 100 µM (inactive) | 27.9 µM (inactive) | > 100 µM (inactive) | –
9 | c1ccc(CN2CCC(Nc3ccccc3)(c3nnnn3Cc3ccccc3)CC2)cc1 | 22.6 µM (inactive) | 45.7 µM (inactive) | > 100 µM (inactive) | 29.2 µM (inactive) | 35 µM (inactive) | 11.6 µM (inactive) | 13 µM (inactive) | 32.9 µM (inactive) | 20.5 µM (inactive) | 20.1 µM (inactive) | 10.1 µM (inactive) | – | 22.5 µM (inactive) | 22.4 µM (inactive) | 42.7 µM (inactive) | – | 3.01 µM (inactive) | 27.4 µM (inactive) | 50 µM (inactive) | 27.2 µM (inactive)
10 | COc1cc(-c2nc(N)c(C#N)c3c2CCS(=O)(=O)c2ccc(C)cc2-3)cc(OC)c1OC | 24.8 µM (inactive) | 22.9 µM (inactive) | > 100 µM (inactive) | 9.98 µM (inactive) | 28.6 µM (inactive) | > 100 µM (inactive) | > 100 µM (inactive) | > 100 µM (inactive) | – | > 100 µM (inactive) | – | 49.7 µM (inactive) | > 100 µM (inactive) | – | 9.46 µM (inactive) | 53 µM (inactive) | > 100 µM (inactive) | – | 25.4 µM (inactive) | 17.3 µM (inactive)
11 | COc1cc(C2=C(C)[C@@H]3CN(CC=C3c3ccc(Cl)cc3)C2)c(S(=O)(=O)O)cc1OC | > 100 µM (inactive) | > 100 µM (inactive) | > 100 µM (inactive) | > 100 µM (inactive) | > 100 µM (inactive) | > 100 µM (inactive) | > 100 µM (inactive) | > 100 µM (inactive) | > 100 µM (inactive) | > 100 µM (inactive) | > 100 µM (inactive) | > 100 µM (inactive) | > 100 µM (inactive) | – | > 100 µM (inactive) | > 100 µM (inactive) | – | > 100 µM (inactive) | > 100 µM (inactive) | > 100 µM (inactive)
12 | CC(=O)OCCCCN1C(=O)CSc2ccccc21 | > 100 µM (inactive) | > 100 µM (inactive) | – | > 100 µM (inactive) | > 100 µM (inactive) | – | 66.5 µM (inactive) | > 100 µM (inactive) | > 100 µM (inactive) | > 100 µM (inactive) | > 100 µM (inactive) | > 100 µM (inactive) | > 100 µM (inactive) | > 100 µM (inactive) | – | 4.2 µM (inactive) | – | > 100 µM (inactive) | – | –
13 | Oc1ccccc1/C=C/c1csnn1 | > 100 µM (inactive) | > 100 µM (inactive) | > 100 µM (inactive) | > 100 µM (inactive) | > 100 µM (inactive) | > 100 µM (inactive) | > 100 µM (inactive) | – | > 100 µM (inactive) | > 52.1 µM (inactive) | > 100 µM (inactive) | > 100 µM (inactive) | > 100 µM (inactive) | – | > 100 µM (inactive) | – | > 100 µM (inactive) | > 100 µM (inactive) | > 100 µM (inactive) | –
14 | CN1c2ccccc2C(=O)NC12CCNCC2 | > 100 µM (inactive) | > 100 µM (inactive) | > 100 µM (inactive) | > 100 µM (inactive) | > 100 µM (inactive) | > 100 µM (inactive) | > 100 µM (inactive) | > 100 µM (inactive) | > 100 µM (inactive) | > 100 µM (inactive) | > 100 µM (inactive) | – | > 100 µM (inactive) | > 100 µM (inactive) | > 100 µM (inactive) | – | > 100 µM (inactive) | > 100 µM (inactive) | > 100 µM (inactive) | –
15 | CCN(CC)C(=S)SS(=O)(=O)c1ccccc1[N+](=O)[O-] | 21.7 µM (inactive) | 22 µM (inactive) | 30.7 µM (inactive) | 31.9 µM (inactive) | 43.8 µM (inactive) | 16.9 µM (inactive) | 5.83 µM (inactive) | 21.7 µM (inactive) | 31.8 µM (inactive) | 17.3 µM (inactive) | 0.415 µM (active) | > 76.7 µM (inactive) | > 50.4 µM (inactive) | – | > 60 µM (inactive) | > 51.2 µM (inactive) | > 49.2 µM (inactive) | 20.8 µM (inactive) | > 54 µM (inactive) | 18.1 µM (inactive)
